{"source": "patent US20210267985A1", "about": "“COMPOSITIONS AND METHODS FOR INDUCING ENHANCED BRAIN FUNCTION” (priority 2020, published 2021)", "origin": "cited, not measured here", "settings": "in vivo", "data": [{"smiles": "Cn1c(=O)c2c(ncn2C)n(C)c1=O", "note": "[caffeine]", "values": [{"measurement": "half-life", "value": "4 to 6", "unit": "h"}]}]}
